Source: patent US10683352B1, “Methods for treating cancer using GRM8 inhibitors” (Flagship Pioneering Innovations V, Inc., priority 2018, dated 2020)

Tested on: M2-like macrophages
Experiment: IL-8 secretion by monocyte-derived macrophages treated with mGluR8 agonist (LEGENDplex bead-based immunoassay)
Format: cell-based, human
Settings: supernatant; for Fold change of IL-8 (Normalized to M2-like Macs + LPS with no compound treatment): human monocyte-derived macrophages, LEGENDplex
Procedure: CD14+ monocytes were isolated from human PBMCs using negative magnetic bead selection (Stemcell Technologies) on day 0. Cells were cultured with M-CSF to differentiate monocytes to macrophages. On day 6, cells were treated with L-AP4 (selective group III metabotropic glutamate receptor agonist) (Sigma-Aldrich), at concentrations 1 μM and 10 μM overnight. Supernatant was collected and LEGENDplex™ bead-based immunoassays (Biolegend) were performed to detect for changes in cytokines secreted.
Secretion of the inflammatory cytokine, IL-8, was decreased with the addition of the mGluR8 agonist in M2-like macrophages, consistent across multiple donors, as shown in Table 17 below.

**Q.** With `NC(CCP(=O)(O)O)C(=O)O` [L-AP4] as the compound, how does the “Fold change of IL-8 (Normalized to M2-like Macs + LPS with no compound treatment)” value (M2-like Macs + L-AP4 1 μM overnight) read?
**A.** The value was 0.646.

**Q.** And the “Fold change of IL-8 (Normalized to M2-like Macs + LPS with no compound treatment)” value (M2-like Macs + L-AP4 10 μM overnight)?
**A.** The value was 0.866.

**Q.** What about the “Secretion of the inflammatory cytokine IL-8” value (macrophages differentiated with M-CSF from CD14+ monocytes of human PBMCs, L-AP4 at 1 μM and 10 μM overnight, multiple donors) of the same compound?
**A.** Its value is “decreased”.
